# In patent US20220133688A1, “MACROCYCLIC LACTONE ANTHELMINTICS AGAINST NEMATODES” (Bayer Animal Health GmbH, priority 2019, published 2022):
# “And” between values parts separate entries of the source, which are not always exact repeats. Identical values can stand only once. Like-named read-outs stand apart in the source and are kept apart here.
# Experiments:
# [1] = tested on: D. immitis Mf, Yazoo-2013 strain (resistant); experiment: Cell attachment assay (canine PMN or PBMC attachment to Mf), Yazoo-2013 isolate; assay type: cell-based, Dirofilaria immitis
# [2] = tested on: D. immitis Mf, Metairie-2014 strain (resistant); experiment: Cell attachment assay (canine PMN or PBMC attachment to Mf), Metairie-2014 isolate; assay type: cell-based, Dirofilaria immitis; details: for lowest drug concentration at which a statistically significant increase (p = <0.05) in cell attachment was observed compared to the no-drug control: 2-way ANOVA
Compound,Percentage (±SEM) of Mf with cells attached [1],drug concentration causing a significant increase in cell attachment [1] [nM],lowest drug concentration at which a statistically significant increase (p = <0.05) in cell attachment was observed compared to the no-drug control [1] [nM],Percentage (±SEM) of Mf with cells attached [2],drug concentration required for a significant increase in cell attachment [2] [µM],increase in attachment of PBMCs at any concentration [2],"Percentage (±SEM) of Mf with cells attached ([1]; PBMC, 1 μM drug, Yazoo-2013 Mf) [%]","lowest drug concentration at which a statistically significant increase (p = <0.05) in cell attachment was observed compared to the no-drug control ([1]; PBMC, 40 h, Yazoo-2013 Mf, 2-way ANOVA) [nM]","Percentage (±SEM) of Mf with cells attached ([1]; PMN, 1 μM drug, Yazoo-2013 Mf) [%]","lowest drug concentration at which a statistically significant increase (p = <0.05) in cell attachment was observed compared to the no-drug control ([1]; PMN, 24 h, Yazoo-2013 Mf, 2-way ANOVA) [nM]","drug concentration causing a significant increase in cell attachment ([1]; PMNs and PBMCs, Yazoo-2013 Mf) [nM]","Percentage (±SEM) of Mf with cells attached ([2]; PBMC, 1 μM drug, Metairie-2014 Mf) [%]","lowest drug concentration at which a statistically significant increase (p = <0.05) in cell attachment was observed compared to the no-drug control ([2]; PBMC, 40 h, Metairie-2014 Mf) [nM]","Percentage (±SEM) of Mf with cells attached ([2]; PMN, 1 μM drug, Metairie-2014 Mf) [%]","lowest drug concentration at which a statistically significant increase (p = <0.05) in cell attachment was observed compared to the no-drug control ([2]; PMN, 24 h, Metairie-2014 Mf) [nM]"
"CC[C@H](C)[C@H]1O[C@]2(CC[C@@H]1C)C[C@@H]1C[C@@H](C/C=C(\C)[C@@H](O[C@H]3C[C@H](OC)[C@@H](O[C@H]4C[C@H](OC)[C@@H](O)[C@H](C)O4)[C@H](C)O3)[C@@H](C)/C=C/C=C3\CO[C@@H]4[C@H](O)C(C)=C[C@@H](C(=O)O1)[C@]34O)O2 [IVM, ivermectin]",25 ± 5% and 18 ± 4%,100 to 300,100,13% and 10% and 13 ± 3% and 10 ± 2%,≥ 1,no significant increase,,,,,,,,,
"CO/N=C1\C[C@]2(C[C@@H]3C[C@@H](C/C=C(\C)C[C@@H](C)/C=C/C=C4\CO[C@@H]5[C@H](O)C(C)=C[C@@H](C(=O)O3)[C@]45O)O2)O[C@H](/C(C)=C/C(C)C)[C@H]1C [MOX, moxidectin]",,,,,,,19 ± 3,10,28 ± 5,3,3 to 10,49 ± 8,1,42 ± 6,10
